According to ChEMBL document CHEMBL4400552, “Design, synthesis and biological evaluation of novel human monoamine oxidase B inhibitors based on a fragment in an X-ray crystal structure” (Bioorg Med Chem Lett, 2019):

Key:
[1] = molecular target: T1, Amine oxidase [flavin-containing] B (Homo sapiens, UniProt P27338); experiment: Inhibition of human recombinant MAO-B expressed in insect cells at 1 uM using p-tyramine as substrate preincubated for 30 mins followed by substrate addition measured for 15 mins by resorufin dye-based fluorescence assay relative to control; conditions: 0.25 h; for inhibition at 1 µM: read-out: INH; for INH: 1 µM
T1 sequence (P27338 whole entry): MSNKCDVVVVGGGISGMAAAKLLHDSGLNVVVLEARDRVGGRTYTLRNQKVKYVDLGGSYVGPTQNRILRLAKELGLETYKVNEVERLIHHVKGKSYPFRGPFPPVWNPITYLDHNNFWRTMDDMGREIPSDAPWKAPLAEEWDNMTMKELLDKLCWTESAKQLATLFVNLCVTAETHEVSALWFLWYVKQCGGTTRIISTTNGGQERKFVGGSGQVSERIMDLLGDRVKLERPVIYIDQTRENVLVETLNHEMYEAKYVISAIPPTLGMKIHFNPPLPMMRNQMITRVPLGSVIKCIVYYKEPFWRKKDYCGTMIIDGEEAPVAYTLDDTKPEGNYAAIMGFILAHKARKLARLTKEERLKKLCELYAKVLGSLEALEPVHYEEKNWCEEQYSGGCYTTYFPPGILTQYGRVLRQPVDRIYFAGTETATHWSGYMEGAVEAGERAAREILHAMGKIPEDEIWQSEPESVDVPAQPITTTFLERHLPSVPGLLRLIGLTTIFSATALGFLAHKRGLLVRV

[2] = molecular target: T2, Amine oxidase [flavin-containing] A (Homo sapiens, UniProt P21397); experiment: Inhibition of human recombinant MAO-A expressed in insect cells using p-tyramine as substrate preincubated for 30 mins followed by substrate addition measured for 15 mins by resorufin dye-based fluorescence assay
T2 sequence (P21397 whole entry): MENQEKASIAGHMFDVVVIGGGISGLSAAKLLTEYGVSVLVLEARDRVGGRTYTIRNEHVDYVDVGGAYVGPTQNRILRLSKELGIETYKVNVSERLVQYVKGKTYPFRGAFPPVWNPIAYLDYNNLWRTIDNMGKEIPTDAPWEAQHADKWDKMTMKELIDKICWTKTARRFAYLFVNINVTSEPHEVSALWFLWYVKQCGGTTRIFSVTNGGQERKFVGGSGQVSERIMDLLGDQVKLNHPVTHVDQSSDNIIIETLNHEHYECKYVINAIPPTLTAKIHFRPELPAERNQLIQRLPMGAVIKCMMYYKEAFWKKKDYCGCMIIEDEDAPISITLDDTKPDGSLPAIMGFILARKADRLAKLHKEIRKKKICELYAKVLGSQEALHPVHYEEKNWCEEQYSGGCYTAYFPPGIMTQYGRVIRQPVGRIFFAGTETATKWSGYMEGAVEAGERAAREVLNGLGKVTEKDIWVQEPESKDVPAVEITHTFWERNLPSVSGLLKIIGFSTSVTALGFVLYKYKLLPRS

[3] = organism: Homo sapiens; experiment: Selectivity index, ratio of IC50 for human recombinant MAO-A expressed in insect cells to IC50 for human recombinant MAO-B expressed in insect cells
[4] = molecular target: T1, Amine oxidase [flavin-containing] B; experiment: Inhibition of human recombinant MAO-B expressed in insect cells using p-tyramine as substrate preincubated for 30 mins followed by substrate addition measured for 15 mins by resorufin dye-based fluorescence assay; format: cell-based

| inhibition at 1 µM [1] | IC50 [2] | IC50 [4] | INH [1] | Compound | Ratio IC50 [3] |
| --- | --- | --- | --- | --- | --- |
| 68.7% | > 500 µM | 0.102 µM | – | O=C1Nc2ccc(OCCc3ccc(F)cc3)cc2C1=O | > 4900 |
| – | – | – | Not Active | CC(C)=C1C(=O)Nc2ccc(OCc3ccc(F)cc3)cc21 | – |
| 18.1% | > 500 µM | 190 µM | – | O=C1Cc2cc(OCCc3ccc(F)cc3)ccc2N1 | > 2.63 |
| 21.1% | > 500 µM | 279 µM | – | CC1(C)C(=O)Nc2ccc(OCc3cccc(Cl)c3)cc21 | > 1.79 |
| 28.8% | > 500 µM | 132 µM | – | CC1(C)C(=O)Nc2ccc(OCc3ccc(Cl)c(Cl)c3)cc21 | > 3.78 |
| – | – | – | Not Active | CC1(C)C(=O)Nc2ccc(OCCOc3ccccc3)cc21 | – |
| – | – | – | Not Active | Cc1ccc(COc2ccc3c(c2)C(C)C(=O)N3)cc1 (racemic) | – |
| – | – | – | Not Active | CC1(C)C(=O)Nc2ccc(OCCc3ccccc3)cc21 | – |
| 8.29% | > 500 µM | 56.4 µM | – | Cn1c(=O)[nH]c2ccc(OCc3ccc(Cl)cc3)cc21 | > 8.87 |
| 5.36% | – | – | – | Cn1c(=O)[nH]c2ccc(OCc3cccc(F)c3)cc21 | – |
| 12.4% | > 500 µM | 17.2 µM | – | O=C1Cc2cc(OCc3ccc(Cl)c(Cl)c3)ccc2N1 | > 29.1 |
| – | – | – | Not Active | Cc1ccc(COc2ccc3c(c2)C(C)(C)C(=O)N3)cc1 | – |
| – | – | – | Not Active | CC1(C)C(=O)Nc2ccc(OCc3ccc(F)cc3)cc21 | – |
| 19.6% | > 500 µM | 24.9 µM | – | O=C1Cc2cc(OCc3ccc(F)cc3)ccc2N1 | > 20.1 |
| 92.5% | 235 µM | 0.073 µM | – | O=C1Nc2ccc(OCc3ccc(F)cc3)cc2C1=O | 3210 |
| – | – | – | Not Active | CC(C)=C1C(=O)Nc2ccc(OCc3cccc(F)c3)cc21 | – |
| – | – | – | Not Active | Cc1ccc(COc2ccc3c(c2)C(C(C)C)C(=O)N3)cc1 (configuration not stated) | – |
| 12.7% | > 500 µM | 397 µM | – | CC(C)C1C(=O)Nc2ccc(OCc3cccc(F)c3)cc21 (configuration not stated) | > 1.62 |

Second part, the compound before the results:

| Compound | inhibition at 1 µM [1] | IC50 [2] | IC50 [4] | INH [1] | Ratio IC50 [3] |
| --- | --- | --- | --- | --- | --- |
| Cn1c(=O)[nH]c2ccc(OCc3cccc(Cl)c3)cc21 | 8.89% | – | – | – | – |
| CCn1c(=O)[nH]c2ccc(OCCCc3ccccc3)cc21 | 4.56% | – | – | – | – |
| Cn1c(=O)[nH]c2ccc(OCCOc3ccc(Cl)cc3)cc21 | 9.94% | – | – | – | – |
| Cn1c(=O)[nH]c2ccc(OCCc3ccccc3)cc21 | – | – | – | Not Active | – |
| Cn1c(=O)[nH]c2cc(OCc3cccc(Cl)c3)ccc21 | 23.4% | > 500 µM | 34.3 µM | – | > 14.6 |
| COc1ccc(OCCOc2ccc3c(c2)C(=C(C)C)C(=O)N3)cc1 | – | – | – | Not Active | – |
| CC(C)=C1C(=O)Nc2ccc(OCCOc3ccccc3)cc21 | – | – | – | Not Active | – |
| CCn1c(=O)[nH]c2ccc(OCCOc3cccc(F)c3)cc21 | 30.3% | > 500 µM | 190 µM | – | > 2.62 |
| CC(C)=C1C(=O)Nc2ccc(OCc3cccc(C)c3)cc21 | – | – | – | Not Active | – |
| CC(C)n1c(=O)[nH]c2ccc(OCCOc3ccc(Cl)cc3)cc21 | 18.2% | – | – | – | – |
| CCn1c(=O)[nH]c2ccc(OCc3cccc(C(F)(F)F)c3)cc21 | 12.5% | – | – | – | – |
| CCn1c(=O)[nH]c2ccc(OCCOc3ccc(Cl)cc3)cc21 | 7.24% | – | – | – | – |
| Cn1c(=O)[nH]c2ccc(OCCCc3ccccc3)cc21 | 14% | > 500 µM | 59.6 µM | – | > 8.39 |
| CC(C)=C1C(=O)Nc2ccc(OCCc3ccccc3)cc21 | – | – | – | Not Active | – |
| Cn1c(=O)[nH]c2cc(OCc3ccccc3)ccc21 | – | – | – | Not Active | – |
| COc1ccc(OCCOc2ccc3[nH]c(=O)n(C(C)C)c3c2)cc1 | 15.5% | – | – | – | – |
| CC(C)c1ccc(OCCOc2ccc3[nH]c(=O)n(C(C)C)c3c2)cc1 | 14.1% | > 500 µM | 66.7 µM | – | > 7.49 |
| CC(C)n1c(=O)[nH]c2ccc(OCCOc3cccc(F)c3)cc21 | 12.9% | – | – | – | – |
| Cn1c(=O)[nH]c2ccc(OCc3ccc(Cl)c(Cl)c3)cc21 | 32.4% | > 500 µM | 7.68 µM | – | > 65 |
| O=C1Nc2ccc(OCc3cccc(Cl)c3)cc2C1=O | 93% | 311 µM | 0.046 µM | – | 6760 |
| O=C1Nc2ccc(OCc3ccc(Cl)c(Cl)c3)cc2C1=O | 95.7% | 117 µM | 0.003 µM | – | 38900 |
| Cn1c(=O)[nH]c2ccc(OCc3ccccc3)cc21 | – | – | – | Not Active | – |
| CCn1c(=O)[nH]c2ccc(OCCCOc3ccccc3)cc21 | 11.3% | – | – | – | – |
| Cn1c(=O)[nH]c2ccc(OCCc3ccc(Cl)cc3)cc21 | 19.9% | – | – | – | – |
| Cn1c(=O)[nH]c2cc(OCCCc3ccccc3)ccc21 | – | – | – | Not Active | – |
| CCn1c(=O)[nH]c2ccc(OCc3ccc(C(F)(F)F)cc3)cc21 | 22.8% | > 500 µM | 184 µM | – | > 2.71 |
| CCn1c(=O)[nH]c2ccc(OCCOc3ccc(OC)cc3)cc21 | 13.9% | – | – | – | – |
| Cn1c(=O)[nH]c2ccc(OCCc3cccc(Cl)c3)cc21 | 13.7% | – | – | – | – |
| Cn1c(=O)[nH]c2cc(OCCc3ccccc3)ccc21 | – | – | – | Not Active | – |
| CCn1c(=O)[nH]c2ccc(OCCOc3ccc(C(C)C)cc3)cc21 | 19% | > 500 µM | 278 µM | – | > 1.8 |
